Assay results: the kinase profiling compilation of Christmann-Franck et al. (2016)

How the values were obtained:
Test in all cases: radiometric filter-binding kinase assay
BRSK1 (human) = BRSK1 (human) (UniProt Q8TDC3)
BTK (human) = BTK (human) (UniProt Q06187)
CAMKK2 (human) = CAMKK2 (human) (UniProt Q96RR4)
CDK2 CCNA2 (human) = CDK2 CCNA2 (human) (UniProt P20248+P24941)
CSK (human) = CSK (human) (UniProt P41240)
CaMK1 (human) = CaMK1 (human) (UniProt Q14012)
DYRK2 (human) = DYRK2 (human) (UniProt Q92630)
EPHA2 (human) = EPHA2 (human) (UniProt P29317)
EPHA4 (human) = EPHA4 (human) (UniProt P54764)
EPHB2 (human) = EPHB2 (human) (UniProt P29323)
ERBB4 (human) = ERBB4 (human) (UniProt Q15303); details: compound 10.0 µM
HIPK3 (human) = HIPK3 (human) (UniProt Q9H422)
HIPK3 (human), sequence (Q9H422 whole entry, looked up): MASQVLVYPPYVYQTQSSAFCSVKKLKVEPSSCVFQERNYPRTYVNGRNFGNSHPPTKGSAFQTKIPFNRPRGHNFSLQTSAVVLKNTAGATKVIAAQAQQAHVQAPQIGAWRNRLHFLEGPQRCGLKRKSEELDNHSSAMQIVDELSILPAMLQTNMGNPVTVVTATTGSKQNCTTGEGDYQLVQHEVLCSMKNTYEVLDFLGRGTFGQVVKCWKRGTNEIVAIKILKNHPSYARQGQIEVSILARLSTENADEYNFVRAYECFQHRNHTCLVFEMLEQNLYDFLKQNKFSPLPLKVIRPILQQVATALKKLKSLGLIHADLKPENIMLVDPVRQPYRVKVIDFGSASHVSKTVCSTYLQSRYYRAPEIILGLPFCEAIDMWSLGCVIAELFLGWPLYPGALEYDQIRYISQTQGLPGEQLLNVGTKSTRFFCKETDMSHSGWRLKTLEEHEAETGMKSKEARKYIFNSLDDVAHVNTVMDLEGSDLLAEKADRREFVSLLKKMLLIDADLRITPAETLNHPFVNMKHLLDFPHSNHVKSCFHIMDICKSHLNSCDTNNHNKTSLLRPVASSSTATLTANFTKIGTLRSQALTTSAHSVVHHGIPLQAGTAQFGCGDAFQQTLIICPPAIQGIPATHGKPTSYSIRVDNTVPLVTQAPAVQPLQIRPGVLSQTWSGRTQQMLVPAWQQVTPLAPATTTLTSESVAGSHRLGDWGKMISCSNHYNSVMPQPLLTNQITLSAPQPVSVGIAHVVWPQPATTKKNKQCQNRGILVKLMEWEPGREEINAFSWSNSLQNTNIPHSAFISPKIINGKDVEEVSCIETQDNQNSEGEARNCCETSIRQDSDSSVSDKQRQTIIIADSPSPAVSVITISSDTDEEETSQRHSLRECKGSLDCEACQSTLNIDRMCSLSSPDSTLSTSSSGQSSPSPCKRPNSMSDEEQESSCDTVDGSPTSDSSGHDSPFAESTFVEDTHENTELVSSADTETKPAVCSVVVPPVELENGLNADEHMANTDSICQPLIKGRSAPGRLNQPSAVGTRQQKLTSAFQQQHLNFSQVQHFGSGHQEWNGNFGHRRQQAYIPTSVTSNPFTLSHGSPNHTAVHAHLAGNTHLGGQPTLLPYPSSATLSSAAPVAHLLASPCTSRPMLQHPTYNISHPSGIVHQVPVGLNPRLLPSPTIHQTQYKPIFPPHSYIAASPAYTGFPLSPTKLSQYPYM

INSR (human) = INSR (human) (UniProt P06213)
INSRR (human) = INSRR (human) (UniProt P14616)
JAK2 JH1 JH2 (human) = JAK2 JH1 JH2 (human) (UniProt O60674)
LCK (mouse) = details: accession and sequence are those of the human protein
MAP2K1 (human) = MAP2K1 (human) (UniProt Q02750)
MAPK15 (human) = MAPK15 (human) (UniProt Q8TD08)
MAPKAPK2 (human) = MAPKAPK2 (human) (UniProt P49137)
MAPKAPK2 (human), sequence (P49137 whole entry, looked up): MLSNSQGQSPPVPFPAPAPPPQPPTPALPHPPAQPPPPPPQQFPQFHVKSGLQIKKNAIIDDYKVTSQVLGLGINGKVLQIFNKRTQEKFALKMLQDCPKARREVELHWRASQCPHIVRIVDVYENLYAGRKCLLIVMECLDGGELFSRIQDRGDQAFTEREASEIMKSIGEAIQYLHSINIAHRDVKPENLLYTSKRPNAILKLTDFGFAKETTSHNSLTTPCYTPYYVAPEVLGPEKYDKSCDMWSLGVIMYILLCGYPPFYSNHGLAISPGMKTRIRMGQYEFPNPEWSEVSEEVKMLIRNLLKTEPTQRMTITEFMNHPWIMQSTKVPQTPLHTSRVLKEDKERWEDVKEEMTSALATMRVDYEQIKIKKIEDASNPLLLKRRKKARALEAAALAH

MARK1 (human) = MARK1 (human) (UniProt Q9P0L2)
MARK2 (human) = MARK2 (human) (UniProt Q7KZI7)
MARK2 (human), sequence (Q7KZI7 whole entry, looked up): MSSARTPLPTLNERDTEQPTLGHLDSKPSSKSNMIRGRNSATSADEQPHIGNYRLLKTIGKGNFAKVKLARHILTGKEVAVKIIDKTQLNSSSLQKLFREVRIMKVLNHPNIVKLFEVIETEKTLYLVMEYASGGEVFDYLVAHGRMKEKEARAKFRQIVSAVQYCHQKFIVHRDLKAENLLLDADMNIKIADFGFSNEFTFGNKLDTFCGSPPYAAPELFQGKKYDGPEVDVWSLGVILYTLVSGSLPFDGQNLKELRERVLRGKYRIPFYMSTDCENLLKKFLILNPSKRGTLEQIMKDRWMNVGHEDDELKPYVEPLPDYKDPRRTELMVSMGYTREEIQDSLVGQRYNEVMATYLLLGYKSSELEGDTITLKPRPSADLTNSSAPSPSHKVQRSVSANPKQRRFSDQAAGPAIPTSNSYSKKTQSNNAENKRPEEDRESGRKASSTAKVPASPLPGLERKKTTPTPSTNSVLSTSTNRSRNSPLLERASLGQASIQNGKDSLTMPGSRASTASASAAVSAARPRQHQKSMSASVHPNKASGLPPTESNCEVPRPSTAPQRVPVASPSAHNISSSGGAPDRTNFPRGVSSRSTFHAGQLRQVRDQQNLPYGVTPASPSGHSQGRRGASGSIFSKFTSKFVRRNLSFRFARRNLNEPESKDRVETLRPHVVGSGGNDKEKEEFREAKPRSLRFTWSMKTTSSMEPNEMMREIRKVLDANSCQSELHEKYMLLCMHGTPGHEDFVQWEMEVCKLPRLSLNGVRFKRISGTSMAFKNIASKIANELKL

MINK1 (human) = MINK1 (human) (UniProt Q8N4C8)
MKNK1 (human) = MKNK1 (human) (UniProt Q9BUB5)
MST4 (human) = MST4 (human) (UniProt Q9P289)
NEK2 (human) = NEK2 (human) (UniProt P51955)
NEK6 (human) = NEK6 (human) (UniProt Q9HC98)
NEK6 (human), sequence (Q9HC98 whole entry, looked up): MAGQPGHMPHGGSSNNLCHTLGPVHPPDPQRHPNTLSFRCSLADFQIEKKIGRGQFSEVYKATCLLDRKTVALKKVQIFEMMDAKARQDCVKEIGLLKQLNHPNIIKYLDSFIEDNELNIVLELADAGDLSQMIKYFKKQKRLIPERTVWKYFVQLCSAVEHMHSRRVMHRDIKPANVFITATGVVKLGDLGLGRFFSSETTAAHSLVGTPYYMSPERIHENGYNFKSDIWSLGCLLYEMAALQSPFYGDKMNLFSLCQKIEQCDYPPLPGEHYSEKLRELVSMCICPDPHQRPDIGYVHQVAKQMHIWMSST

NUAK1 (human) = NUAK1 (human) (UniProt O60285)
PAK7 (human) = PAK7 (human) (UniProt Q9P286)
PHKG1 (human) = PHKG1 (human) (UniProt Q16816)
PRKAA1 or PRKAA2 (rat) = details: accession and sequence are those of the human protein
PRKACA (human) = PRKACA (human) (UniProt P17612)
PRKCA (human) = PRKCA (human) (UniProt P17252); details: compound 10.0 µM
RIPK2 (human) = RIPK2 (human) (UniProt O43353)
RIPK2 (human), sequence (O43353 whole entry, looked up): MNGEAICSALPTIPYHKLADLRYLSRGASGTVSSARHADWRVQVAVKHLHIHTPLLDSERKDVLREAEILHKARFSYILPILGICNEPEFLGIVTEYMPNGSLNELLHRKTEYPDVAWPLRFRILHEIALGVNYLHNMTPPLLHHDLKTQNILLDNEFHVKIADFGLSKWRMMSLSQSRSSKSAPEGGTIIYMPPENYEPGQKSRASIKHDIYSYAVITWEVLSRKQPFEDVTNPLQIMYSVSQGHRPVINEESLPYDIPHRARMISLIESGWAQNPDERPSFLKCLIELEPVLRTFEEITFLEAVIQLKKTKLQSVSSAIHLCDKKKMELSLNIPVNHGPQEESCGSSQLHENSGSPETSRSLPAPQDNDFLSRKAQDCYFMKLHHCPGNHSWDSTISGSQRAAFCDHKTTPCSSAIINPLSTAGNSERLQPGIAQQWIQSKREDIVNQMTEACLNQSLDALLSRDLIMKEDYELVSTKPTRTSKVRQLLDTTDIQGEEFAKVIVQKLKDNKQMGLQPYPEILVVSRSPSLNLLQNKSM

RPS6KA5 KD1 KD2 (human) = RPS6KA5 KD1 KD2 (human) (UniProt O75582)
RPS6KA5 KD1 KD2 (human), sequence (O75582 whole entry, looked up): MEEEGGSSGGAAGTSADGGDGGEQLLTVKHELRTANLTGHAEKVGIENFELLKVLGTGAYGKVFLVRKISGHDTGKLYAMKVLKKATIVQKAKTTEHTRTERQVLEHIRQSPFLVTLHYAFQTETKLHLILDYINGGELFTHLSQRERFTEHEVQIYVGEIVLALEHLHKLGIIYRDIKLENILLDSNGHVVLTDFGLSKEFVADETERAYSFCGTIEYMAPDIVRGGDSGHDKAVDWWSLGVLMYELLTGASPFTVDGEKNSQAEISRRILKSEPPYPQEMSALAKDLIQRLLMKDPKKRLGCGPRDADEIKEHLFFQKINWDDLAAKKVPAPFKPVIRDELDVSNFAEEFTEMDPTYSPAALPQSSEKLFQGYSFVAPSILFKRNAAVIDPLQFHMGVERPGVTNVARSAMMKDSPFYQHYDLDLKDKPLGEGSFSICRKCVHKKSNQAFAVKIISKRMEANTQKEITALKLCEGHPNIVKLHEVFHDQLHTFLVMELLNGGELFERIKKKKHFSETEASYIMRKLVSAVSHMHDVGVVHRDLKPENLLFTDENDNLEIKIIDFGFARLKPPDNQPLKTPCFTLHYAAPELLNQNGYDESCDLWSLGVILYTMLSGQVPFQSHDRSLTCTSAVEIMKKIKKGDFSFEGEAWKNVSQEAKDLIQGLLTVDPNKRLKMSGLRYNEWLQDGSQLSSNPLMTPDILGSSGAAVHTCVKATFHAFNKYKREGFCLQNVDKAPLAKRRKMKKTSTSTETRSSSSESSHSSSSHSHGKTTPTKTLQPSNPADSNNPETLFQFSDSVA

SRPK1 (human) = SRPK1 (human) (UniProt Q96SB4)

CaMK1 (human), sequence (Q14012 whole entry, looked up): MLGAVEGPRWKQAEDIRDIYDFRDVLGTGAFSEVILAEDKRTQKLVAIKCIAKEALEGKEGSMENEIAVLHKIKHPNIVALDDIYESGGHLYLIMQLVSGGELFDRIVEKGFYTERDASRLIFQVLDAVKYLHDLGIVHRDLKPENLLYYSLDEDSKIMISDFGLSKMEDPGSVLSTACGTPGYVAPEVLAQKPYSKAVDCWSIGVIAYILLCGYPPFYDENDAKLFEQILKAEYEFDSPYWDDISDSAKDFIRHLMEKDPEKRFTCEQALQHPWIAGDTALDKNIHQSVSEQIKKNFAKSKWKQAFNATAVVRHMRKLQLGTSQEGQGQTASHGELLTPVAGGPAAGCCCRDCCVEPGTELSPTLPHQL
CAMKK2 (human), sequence (Q96RR4 whole entry, looked up): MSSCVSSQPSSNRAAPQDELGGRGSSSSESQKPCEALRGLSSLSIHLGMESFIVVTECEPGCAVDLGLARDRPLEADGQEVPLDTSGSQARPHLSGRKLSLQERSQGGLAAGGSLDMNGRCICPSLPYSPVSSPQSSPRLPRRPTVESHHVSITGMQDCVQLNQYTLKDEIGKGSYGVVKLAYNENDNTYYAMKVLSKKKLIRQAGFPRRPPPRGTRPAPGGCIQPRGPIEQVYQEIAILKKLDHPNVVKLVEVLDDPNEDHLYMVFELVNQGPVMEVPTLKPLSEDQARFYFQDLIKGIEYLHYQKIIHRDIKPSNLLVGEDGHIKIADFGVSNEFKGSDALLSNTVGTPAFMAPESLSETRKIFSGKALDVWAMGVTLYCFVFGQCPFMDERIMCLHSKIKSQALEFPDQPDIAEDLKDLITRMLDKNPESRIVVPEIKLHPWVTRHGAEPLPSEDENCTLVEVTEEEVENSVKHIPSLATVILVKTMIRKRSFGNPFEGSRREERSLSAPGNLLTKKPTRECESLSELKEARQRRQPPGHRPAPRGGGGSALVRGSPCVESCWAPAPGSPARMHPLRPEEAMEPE

## Cc1ccc(=O)n(-c2ccccc2)c1
BRSK1 (human); compound 1.0 µM
  residual activity: 95%
BRSK1 (human); compound 10.0 µM
  residual activity: 93%
BTK (human); compound 1.0 µM
  residual activity: 119%
BTK (human); compound 10.0 µM
  residual activity: 115%
CAMKK2 (human); compound 1.0 µM
  residual activity: 97%
CAMKK2 (human); compound 10.0 µM
  residual activity: 108%
CDK2 CCNA2 (human); compound 1.0 µM
  residual activity: 103%
CDK2 CCNA2 (human); compound 10.0 µM
  residual activity: 97%
CSK (human); compound 1.0 µM
  residual activity: 98%
CSK (human); compound 10.0 µM
  residual activity: 87%
CaMK1 (human); compound 1.0 µM
  residual activity: 98%
CaMK1 (human); compound 10.0 µM
  residual activity: 81%
DYRK2 (human); compound 1.0 µM
  residual activity: 107%
DYRK2 (human); compound 10.0 µM
  residual activity: 98%
EPHA2 (human); compound 1.0 µM
  residual activity: 113%
EPHA2 (human); compound 10.0 µM
  residual activity: 111%
EPHA4 (human); compound 1.0 µM
  residual activity: 106%
EPHA4 (human); compound 10.0 µM
  residual activity: 99%
EPHB2 (human); compound 1.0 µM
  residual activity: 120%
EPHB2 (human); compound 10.0 µM
  residual activity: 109%
ERBB4 (human)
  residual activity: 106%
HIPK3 (human); compound 1.0 µM
  residual activity: 100%
HIPK3 (human); compound 10.0 µM
  residual activity: 96%
INSR (human); compound 1.0 µM
  residual activity: 110%
INSR (human); compound 10.0 µM
  residual activity: 103%
INSRR (human); compound 1.0 µM
  residual activity: 104%
INSRR (human); compound 10.0 µM
  residual activity: 99%
JAK2 JH1 JH2 (human); compound 1.0 µM
  residual activity: 103%
JAK2 JH1 JH2 (human); compound 10.0 µM
  residual activity: 90%
LCK (mouse); compound 1.0 µM
  residual activity: 96%
LCK (mouse); compound 10.0 µM
  residual activity: 102%
MAP2K1 (human); compound 1.0 µM
  residual activity: 77%
MAP2K1 (human); compound 10.0 µM
  residual activity: 65%
MAPK15 (human); compound 1.0 µM
  residual activity: 95%
MAPK15 (human); compound 10.0 µM
  residual activity: 86%
MAPKAPK2 (human); compound 1.0 µM
  residual activity: 108%
MAPKAPK2 (human); compound 10.0 µM
  residual activity: 93%
MARK1 (human); compound 1.0 µM
  residual activity: 99%
MARK1 (human); compound 10.0 µM
  residual activity: 98%
MARK2 (human); compound 1.0 µM
  residual activity: 104%
MARK2 (human); compound 10.0 µM
  residual activity: 102%
MINK1 (human); compound 1.0 µM
  residual activity: 106%
MINK1 (human); compound 10.0 µM
  residual activity: 108%
MKNK1 (human); compound 1.0 µM
  residual activity: 101%
MKNK1 (human); compound 10.0 µM
  residual activity: 99%
MST4 (human); compound 1.0 µM
  residual activity: 105%
MST4 (human); compound 10.0 µM
  residual activity: 102%
NEK2 (human); compound 1.0 µM
  residual activity: 107%
NEK2 (human); compound 10.0 µM
  residual activity: 95%
NEK6 (human); compound 1.0 µM
  residual activity: 99%
NEK6 (human); compound 10.0 µM
  residual activity: 91%
NUAK1 (human); compound 1.0 µM
  residual activity: 115%
NUAK1 (human); compound 10.0 µM
  residual activity: 100%
PAK7 (human); compound 1.0 µM
  residual activity: 88%
PAK7 (human); compound 10.0 µM
  residual activity: 96%
PHKG1 (human); compound 1.0 µM
  residual activity: 103%
PHKG1 (human); compound 10.0 µM
  residual activity: 96%
PRKAA1 or PRKAA2 (rat); compound 1.0 µM
  residual activity: 99%
PRKAA1 or PRKAA2 (rat); compound 10.0 µM
  residual activity: 103%
PRKACA (human); compound 1.0 µM
  residual activity: 90%
PRKACA (human); compound 10.0 µM
  residual activity: 97%
PRKCA (human)
  residual activity: 118%
RIPK2 (human); compound 1.0 µM
  residual activity: 86%
RIPK2 (human); compound 10.0 µM
  residual activity: 87%
RPS6KA5 KD1 KD2 (human); compound 1.0 µM
  residual activity: 98%
RPS6KA5 KD1 KD2 (human); compound 10.0 µM
  residual activity: 95%
SRPK1 (human); compound 1.0 µM
  residual activity: 95%
SRPK1 (human); compound 10.0 µM
  residual activity: 89%
